Measured values: the supplement of paper PMC10307832

What was measured:
Test in all cases: relative viability (nuclei count vs DMSO), 5 days (fraction); higher = more cells survive
[1] = compound: Cn1nnc2c(C(N)=O)ncn2c1=O [Temozolomide] + Cc1cc(Nc2cc(N3CCN(C)CC3)nc(Sc3ccc(NC(=O)C4CC4)cc3)n2)n[nH]1 [Tozasertib] (partner 0.1 µM)
Procedure, shortened: (§1)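 Relative viability equals treated-well nuclei counts divided by vehicle-well nuclei counts. Counts came from 4× images of lung cancer cell lines grown in 1536-well plates for 5 days after pin-tool dosing on the day after seeding. Dosing used one drug alone or a fixed anchor-drug dose plus five library-drug doses (not always all listed) in √10 steps, and values are medians of duplicate plates.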

[2] = compound: C[C@@H](C(=O)N[C@@H](C1CCCCC1)C(=O)N2CCC[C@H]2C(=O)N[C@@H]3[C@@H](CC4=CC=CC=C34)OCC#CC#CCO[C@@H]5CC6=CC=CC=C6[C@@H]5NC(=O)[C@@H]7CCCN7C(=O)[C@H](C8CCCCC8)NC(=O)[C@H](C)NC)NC [AZD5582] + CS(=O)(=O)N1CCN(Cc2cc3nc(-c4cccc5[nH]ncc45)nc(N4CCOCC4)c3s2)CC1 [Pictilisib] (partner 1 µM)
Procedure, shortened: as §1

[3] = compound: C[C@@H](C(=O)N[C@@H](C1CCCCC1)C(=O)N2CCC[C@H]2C(=O)N[C@@H]3[C@@H](CC4=CC=CC=C34)OCC#CC#CCO[C@@H]5CC6=CC=CC=C6[C@@H]5NC(=O)[C@@H]7CCCN7C(=O)[C@H](C8CCCCC8)NC(=O)[C@H](C)NC)NC [AZD5582] + COc1cc2c(Oc3ccc(NC(=O)C4(C(=O)Nc5ccc(F)cc5)CC4)cc3F)ccnc2cc1OCCCN1CCOCC1 [Foretinib] (partner 0.25 µM)
Procedure, shortened: as §1

[4] = compound: Cn1nnc2c(C(N)=O)ncn2c1=O [Temozolomide] + O=C(c1cc(Cc2n[nH]c(=O)c3ccccc23)ccc1F)N1CCN(C(=O)C2CC2)CC1 [Olaparib] (partner 8 µM)
Procedure, shortened: as §1

Cell Line	relative viability ([1]; first compound 0.2 µM)	relative viability ([1]; first compound 0.6325 µM)	relative viability ([1]; first compound 2 µM)	relative viability ([1]; first compound 6.325 µM)	relative viability ([1]; first compound 20 µM)	relative viability ([2]; first compound 0.001581 µM)	relative viability ([2]; first compound 0.005 µM)	relative viability ([2]; first compound 0.01581 µM)	relative viability ([2]; first compound 0.05 µM)	relative viability ([3]; first compound 0.001581 µM)	relative viability ([3]; first compound 0.005 µM)	relative viability ([3]; first compound 0.01581 µM)	relative viability ([3]; first compound 0.05 µM)	relative viability ([4]; first compound 0.2 µM)	relative viability ([4]; first compound 0.6325 µM)	relative viability ([4]; first compound 2 µM)	relative viability ([4]; first compound 6.325 µM)	relative viability ([4]; first compound 20 µM)
LCLC-103H	0.486	0.481	0.566	0.456	0.413	0.649	0.699	0.454	0.559	0.699	0.725	0.681	0.581	0.82	0.79	0.85	0.731	0.617
NCI-H2228	0.246	0.322	0.206	0.212	0.251	0.286	0.352	0.378	0.193	0.843	1	0.788	0.472	0.95	0.671	0.363	0.697	0.479
NCI-H661	0.351	0.351	0.352	0.362	0.337	0.36	0.416	0.403	0.399	0.954	0.982	1.03	0.98	0.744	0.735	0.731	0.634	0.551
NCI-H460	0.441	0.418	0.518	0.368	0.339	0.277	0.329	0.366	0.337	0.916	1.03	0.952	0.97	0.488	0.47	0.366	0.317	0.214
NCI-H2023	0.427	0.361	0.344	0.359	0.403	0.227	0.288	0.172	0.246	0.805	0.851	0.802	0.804	0.539	0.444	0.463	0.373	0.26
LU99A	0.259	0.262	0.275	0.259	0.303	0.315	0.323	0.291	0.37	0.871	0.948	0.886	1.03	0.285	0.258	0.295	0.155	0.119
SW 1573	0.298	0.177	0.162	0.207	0.169	0.487	0.612	0.635	0.674	0.736	1	0.885	0.853	0.585	0.534	0.424	0.302	0.236
COR-L23	0.2	0.213	0.227	0.206	0.198	0.71	0.818	0.621	0.717	0.963	0.887	0.87	1.1	0.374	0.377	0.318	0.257	0.189
NCI-H23	0.4	0.337	0.35	0.381	0.249	0.419	0.387	0.408	0.327	0.762	0.872	0.787	0.952	0.345	0.32	0.382	0.266	0.22
ChaGo-K-1	0.263	0.209	0.3	0.191	0.226	0.757	0.965	0.432	0.78	0.882	0.9	0.83	1.1	0.437	0.417	0.4	0.315	0.228
NCI-H1944	0.241	0.273	0.327	0.284	0.257	0.344	0.389	0.297	0.389	0.8	0.976	0.93	1.05	0.428	0.38	0.377	0.315	0.27
NCI-H322M		0.508	0.484	0.546	0.4	0.554	0.632	0.715	0.625	1.07	1.06		1.29	0.671	0.734	0.727	0.692	0.555
EMC-BAC-2	0.326	0.309	0.274	0.255	0.314	0.469	0.523	0.414	0.328	0.867	0.809	1.02	0.412	0.667	0.504	0.455	0.367	0.271
NCI-H3122	0.257	0.482	0.47	0.356	0.46	0.626	0.569	0.548	0.189	0.977	0.994	0.933	0.602	0.631	0.533	0.654	0.51	0.334
NCI-H520	0.474	0.441	0.462	0.428	0.426	0.266	0.283	0.303	0.311	0.651	0.777	0.81	0.697	0.391	0.33	0.312	0.284	0.242
HARA	0.0933	0.112	0.107	0.11	0.108	0.553	0.494	0.381	0.338	0.858	0.918	0.904	0.639	0.9	1.19	0.844	1.01	0.444
NCI-H1650	0.484	0.441	0.424	0.353	0.461	0.535	0.738	0.485	0.604	0.971	1.33	1.27	0.889	0.854	0.795	0.776	0.672	0.703
